Measured values from publication PMC8429728, “TNK1 is a ubiquitin-binding and 14-3-3-regulated kinase that can be targeted to block tumor growth” (Nature Communications, 2021).
Like-named read-outs stand apart in the source and are kept apart here.

Key:
Assay in all cases: biochemical
Parameters in all cases: Reaction Biology 371-kinase panel at Km ATP, per cent enzyme activity relative to DMSO, single dose in duplicate
Details in all cases: duplicate measurements, Km ATP
GLK/MAP4K3 = GLK/MAP4K3 (Homo sapiens, UniProt Q8IVH8)
Procedure, shortened: (§1)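 Activity of each kinase, normalised to DMSO-treated controls, served as the read-out. The inhibitor was tested at 300 nM against 371 kinases in vitro. Curves fitted by variable-slope sigmoidal dose-response, constrained to a bottom of 0, gave IC50.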

MARK1 = MARK1 (Homo sapiens, UniProt Q9P0L2)
Procedure, shortened: as §1

PKCnu/PRKD3 = PKCnu/PRKD3 (Homo sapiens, UniProt O94806)
Procedure, shortened: as §1

CDK3/cyclin E = CDK3/cyclin E (Homo sapiens, UniProt Q00526)
Procedure, shortened: as §1

TNK1 = target: T1, TNK1 (Homo sapiens, UniProt Q13470)
T1 sequence (Q13470 1-666): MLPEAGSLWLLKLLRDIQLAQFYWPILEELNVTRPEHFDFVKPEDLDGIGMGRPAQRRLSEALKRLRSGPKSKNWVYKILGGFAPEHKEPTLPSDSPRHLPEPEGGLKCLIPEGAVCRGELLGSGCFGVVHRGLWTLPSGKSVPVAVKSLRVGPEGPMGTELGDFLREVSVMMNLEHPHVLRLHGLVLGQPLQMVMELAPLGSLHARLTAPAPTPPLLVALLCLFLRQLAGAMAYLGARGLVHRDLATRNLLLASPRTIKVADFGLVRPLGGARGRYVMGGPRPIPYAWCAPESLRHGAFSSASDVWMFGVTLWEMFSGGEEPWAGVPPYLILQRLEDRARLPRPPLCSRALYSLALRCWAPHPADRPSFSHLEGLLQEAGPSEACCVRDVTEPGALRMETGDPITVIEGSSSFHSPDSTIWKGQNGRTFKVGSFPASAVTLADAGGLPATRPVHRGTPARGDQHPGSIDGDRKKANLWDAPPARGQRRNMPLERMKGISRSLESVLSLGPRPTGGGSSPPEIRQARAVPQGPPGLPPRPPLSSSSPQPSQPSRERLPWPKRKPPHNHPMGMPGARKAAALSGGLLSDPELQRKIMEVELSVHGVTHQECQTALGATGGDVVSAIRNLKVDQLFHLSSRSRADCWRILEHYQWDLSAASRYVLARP
Procedure, shortened: as §1

ERBB4/HER4 = ERBB4/HER4 (Homo sapiens, UniProt Q15303)
Procedure, shortened: as §1

SSTK/TSSK6 = SSTK/TSSK6 (Homo sapiens, UniProt Q9BXA6)
Procedure, shortened: as §1

HIPK1 = HIPK1 (Homo sapiens, UniProt Q86Z02)
Procedure, shortened: as §1

CDK3/cyclin E2 = CDK3/cyclin E2 (Homo sapiens, UniProt Q00526)
Procedure, shortened: as §1

IKKa/CHUK = IKKa/CHUK (Homo sapiens, UniProt O15111)
Procedure, shortened: as §1

FLT1/VEGFR1 = FLT1/VEGFR1 (Homo sapiens, UniProt P17948)
Procedure, shortened: as §1

FYN = FYN (Homo sapiens, UniProt P06241)
Procedure, shortened: as §1

PLK1 = PLK1 (Homo sapiens, UniProt P53350)
Procedure, shortened: as §1

PKCb1 = target: T2, PKCb1 (Homo sapiens, UniProt P05771)
T2 construct: gene PRKCB; isoform beta I
Procedure, shortened: as §1

LRRK2 = LRRK2 (Homo sapiens, UniProt Q5S007)
Procedure, shortened: as §1

[1] = read-out: % Enzyme Activity (relative to DMSO controls) / TP-0005801 (0.3µM) / Data 1
[2] = read-out: % Enzyme Activity (relative to DMSO controls) / TP-0005801 (0.3µM) / Data 2

Chain of IKKa/CHUK (O15111 whole entry): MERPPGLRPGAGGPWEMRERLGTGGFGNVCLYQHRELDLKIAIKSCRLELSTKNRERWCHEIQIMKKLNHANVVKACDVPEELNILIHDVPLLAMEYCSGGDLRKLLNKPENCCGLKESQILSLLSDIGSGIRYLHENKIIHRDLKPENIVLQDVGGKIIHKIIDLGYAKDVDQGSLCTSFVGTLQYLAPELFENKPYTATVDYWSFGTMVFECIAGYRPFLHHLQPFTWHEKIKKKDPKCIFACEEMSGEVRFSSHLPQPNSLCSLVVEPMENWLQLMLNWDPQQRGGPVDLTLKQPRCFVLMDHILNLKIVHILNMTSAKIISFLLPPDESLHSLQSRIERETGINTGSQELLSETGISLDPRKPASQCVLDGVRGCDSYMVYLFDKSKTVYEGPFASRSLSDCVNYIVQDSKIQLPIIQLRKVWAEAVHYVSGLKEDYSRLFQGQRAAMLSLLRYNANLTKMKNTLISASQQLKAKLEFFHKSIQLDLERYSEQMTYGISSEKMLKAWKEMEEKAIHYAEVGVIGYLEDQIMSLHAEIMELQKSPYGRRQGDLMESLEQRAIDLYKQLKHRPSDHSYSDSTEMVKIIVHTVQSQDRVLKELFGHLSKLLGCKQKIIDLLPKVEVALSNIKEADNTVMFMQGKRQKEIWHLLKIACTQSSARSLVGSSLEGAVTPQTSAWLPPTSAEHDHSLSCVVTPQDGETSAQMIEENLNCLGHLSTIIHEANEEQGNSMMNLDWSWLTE
Chain of MARK1 (Q9P0L2 whole entry): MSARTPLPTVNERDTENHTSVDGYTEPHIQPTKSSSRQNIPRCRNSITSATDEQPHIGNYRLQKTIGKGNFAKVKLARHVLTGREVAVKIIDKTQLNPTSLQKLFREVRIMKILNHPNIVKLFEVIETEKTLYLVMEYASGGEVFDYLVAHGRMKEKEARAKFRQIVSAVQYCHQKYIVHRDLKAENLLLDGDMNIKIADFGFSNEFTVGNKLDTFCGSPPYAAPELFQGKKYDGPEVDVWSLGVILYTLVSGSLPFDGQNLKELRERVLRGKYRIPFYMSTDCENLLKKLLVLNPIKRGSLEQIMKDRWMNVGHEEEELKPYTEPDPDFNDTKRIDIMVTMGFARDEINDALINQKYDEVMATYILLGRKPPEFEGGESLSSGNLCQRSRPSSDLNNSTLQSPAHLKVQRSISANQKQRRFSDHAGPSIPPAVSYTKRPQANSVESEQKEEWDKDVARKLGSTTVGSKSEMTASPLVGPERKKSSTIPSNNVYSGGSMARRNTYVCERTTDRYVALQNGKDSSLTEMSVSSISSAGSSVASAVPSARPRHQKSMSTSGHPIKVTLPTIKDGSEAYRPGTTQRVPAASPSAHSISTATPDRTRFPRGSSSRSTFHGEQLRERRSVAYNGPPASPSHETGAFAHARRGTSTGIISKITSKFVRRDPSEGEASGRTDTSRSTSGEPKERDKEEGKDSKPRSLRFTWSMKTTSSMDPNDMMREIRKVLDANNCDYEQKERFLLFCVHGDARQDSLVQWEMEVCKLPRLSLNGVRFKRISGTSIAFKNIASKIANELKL
Chain of CDK3/cyclin E2 (Q00526 whole entry): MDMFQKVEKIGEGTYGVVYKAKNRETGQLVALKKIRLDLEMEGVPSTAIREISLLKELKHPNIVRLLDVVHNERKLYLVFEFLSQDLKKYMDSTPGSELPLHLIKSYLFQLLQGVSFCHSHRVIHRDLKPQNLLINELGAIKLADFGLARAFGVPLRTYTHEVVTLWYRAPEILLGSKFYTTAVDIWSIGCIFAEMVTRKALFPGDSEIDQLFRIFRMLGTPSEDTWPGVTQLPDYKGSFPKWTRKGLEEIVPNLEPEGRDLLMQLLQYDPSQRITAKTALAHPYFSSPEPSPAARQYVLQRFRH
Chain of CDK3/cyclin E2 (O96020 whole entry partner): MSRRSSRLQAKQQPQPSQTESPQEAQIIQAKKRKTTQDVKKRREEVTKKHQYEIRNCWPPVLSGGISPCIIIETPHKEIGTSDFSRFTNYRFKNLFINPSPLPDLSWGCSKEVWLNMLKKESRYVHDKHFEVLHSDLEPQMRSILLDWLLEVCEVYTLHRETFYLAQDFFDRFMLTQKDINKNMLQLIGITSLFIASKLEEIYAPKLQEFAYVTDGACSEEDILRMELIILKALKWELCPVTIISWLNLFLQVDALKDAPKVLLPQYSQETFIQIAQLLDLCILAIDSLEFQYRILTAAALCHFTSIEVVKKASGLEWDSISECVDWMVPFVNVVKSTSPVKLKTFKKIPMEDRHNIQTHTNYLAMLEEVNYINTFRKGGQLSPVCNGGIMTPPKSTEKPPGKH
Chain of CDK3/cyclin E (Q00526 whole entry): as the sequence (Q00526 whole entry) above
Chain of CDK3/cyclin E (P24864 whole entry partner): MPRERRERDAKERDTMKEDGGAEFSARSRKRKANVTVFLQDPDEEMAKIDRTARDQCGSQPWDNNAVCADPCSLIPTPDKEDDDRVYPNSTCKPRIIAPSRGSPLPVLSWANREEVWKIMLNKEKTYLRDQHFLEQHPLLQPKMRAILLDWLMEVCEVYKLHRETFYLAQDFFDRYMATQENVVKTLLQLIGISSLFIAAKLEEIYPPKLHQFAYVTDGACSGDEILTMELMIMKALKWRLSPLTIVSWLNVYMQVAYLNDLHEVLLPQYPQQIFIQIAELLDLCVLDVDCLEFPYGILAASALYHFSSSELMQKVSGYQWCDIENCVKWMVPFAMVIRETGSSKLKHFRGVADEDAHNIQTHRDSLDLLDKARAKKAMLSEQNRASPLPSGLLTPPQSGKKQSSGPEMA
Chain of FLT1/VEGFR1 (P17948 whole entry): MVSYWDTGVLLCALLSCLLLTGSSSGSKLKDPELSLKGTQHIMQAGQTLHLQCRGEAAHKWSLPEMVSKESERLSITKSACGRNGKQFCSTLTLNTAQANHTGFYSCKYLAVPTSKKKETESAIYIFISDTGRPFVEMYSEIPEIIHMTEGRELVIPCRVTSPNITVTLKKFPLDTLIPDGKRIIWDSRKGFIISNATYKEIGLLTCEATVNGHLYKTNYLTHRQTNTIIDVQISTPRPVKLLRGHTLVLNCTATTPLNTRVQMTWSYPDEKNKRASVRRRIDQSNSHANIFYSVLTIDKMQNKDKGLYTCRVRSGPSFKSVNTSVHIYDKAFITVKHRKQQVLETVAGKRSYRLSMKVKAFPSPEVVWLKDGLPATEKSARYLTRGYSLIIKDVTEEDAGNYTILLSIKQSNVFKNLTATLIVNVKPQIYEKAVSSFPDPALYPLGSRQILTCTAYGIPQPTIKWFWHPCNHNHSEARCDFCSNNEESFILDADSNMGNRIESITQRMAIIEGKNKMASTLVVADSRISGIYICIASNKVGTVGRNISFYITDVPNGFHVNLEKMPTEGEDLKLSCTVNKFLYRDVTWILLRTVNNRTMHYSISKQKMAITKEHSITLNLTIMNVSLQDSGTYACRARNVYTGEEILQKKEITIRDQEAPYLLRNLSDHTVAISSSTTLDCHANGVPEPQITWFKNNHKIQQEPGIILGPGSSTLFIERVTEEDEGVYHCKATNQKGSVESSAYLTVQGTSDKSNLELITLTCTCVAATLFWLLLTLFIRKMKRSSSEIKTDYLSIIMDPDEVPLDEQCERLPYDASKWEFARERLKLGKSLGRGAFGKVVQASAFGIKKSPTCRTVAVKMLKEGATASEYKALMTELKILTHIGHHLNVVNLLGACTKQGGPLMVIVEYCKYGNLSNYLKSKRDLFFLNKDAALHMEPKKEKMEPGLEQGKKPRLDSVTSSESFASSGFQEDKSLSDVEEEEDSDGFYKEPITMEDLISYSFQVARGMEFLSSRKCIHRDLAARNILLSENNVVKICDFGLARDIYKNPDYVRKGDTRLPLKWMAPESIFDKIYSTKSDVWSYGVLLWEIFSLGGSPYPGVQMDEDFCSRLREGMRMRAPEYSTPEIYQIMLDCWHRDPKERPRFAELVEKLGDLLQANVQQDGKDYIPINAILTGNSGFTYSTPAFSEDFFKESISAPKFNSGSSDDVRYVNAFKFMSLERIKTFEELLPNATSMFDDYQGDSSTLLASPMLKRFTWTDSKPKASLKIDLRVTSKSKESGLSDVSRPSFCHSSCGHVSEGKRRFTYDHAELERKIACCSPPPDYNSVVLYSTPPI
T2 sequence (P05771 whole entry, canonical isoform): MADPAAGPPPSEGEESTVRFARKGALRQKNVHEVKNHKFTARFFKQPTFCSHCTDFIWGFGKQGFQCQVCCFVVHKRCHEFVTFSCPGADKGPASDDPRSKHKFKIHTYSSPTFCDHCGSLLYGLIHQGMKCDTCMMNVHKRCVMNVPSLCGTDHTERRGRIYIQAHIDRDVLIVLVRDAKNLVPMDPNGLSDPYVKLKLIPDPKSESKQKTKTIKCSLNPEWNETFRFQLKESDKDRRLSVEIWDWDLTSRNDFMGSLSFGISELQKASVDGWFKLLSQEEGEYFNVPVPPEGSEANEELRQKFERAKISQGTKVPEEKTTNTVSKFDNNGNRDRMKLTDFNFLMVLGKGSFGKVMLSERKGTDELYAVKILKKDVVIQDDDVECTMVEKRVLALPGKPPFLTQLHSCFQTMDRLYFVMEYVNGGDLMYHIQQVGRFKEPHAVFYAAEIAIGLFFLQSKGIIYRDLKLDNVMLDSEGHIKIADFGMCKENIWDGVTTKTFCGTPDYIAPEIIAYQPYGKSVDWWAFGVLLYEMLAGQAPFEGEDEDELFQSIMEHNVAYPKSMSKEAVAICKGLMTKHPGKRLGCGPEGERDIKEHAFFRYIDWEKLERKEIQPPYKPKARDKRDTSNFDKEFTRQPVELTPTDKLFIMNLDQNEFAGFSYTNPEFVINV

remaining activity at 0.3 µM (GLK/MAP4K3; [1]): 35%
remaining activity at 0.3 µM (GLK/MAP4K3; [2]): 34.3%
remaining activity at 0.3 µM (MARK1; [1]): 101%
remaining activity at 0.3 µM (MARK1; [2]): 99.2%
remaining activity at 0.3 µM (PKCnu/PRKD3; [1]): 55.8%
remaining activity at 0.3 µM (PKCnu/PRKD3; [2]): 55.5%
remaining activity at 0.3 µM (CDK3/cyclin E; [1]): 98%
remaining activity at 0.3 µM (CDK3/cyclin E; [2]): 97.7%
remaining activity at 0.3 µM (TNK1; [1]): 0.98%
remaining activity at 0.3 µM (TNK1; [2]): 0.83%
remaining activity at 0.3 µM (ERBB4/HER4; [1]): 103%
remaining activity at 0.3 µM (ERBB4/HER4; [2]): 102%
remaining activity at 0.3 µM (SSTK/TSSK6; [1]): 111%
remaining activity at 0.3 µM (SSTK/TSSK6; [2]): 107%
remaining activity at 0.3 µM (HIPK1; [1]): 90.8%
remaining activity at 0.3 µM (HIPK1; [2]): 89.2%
remaining activity at 0.3 µM (CDK3/cyclin E2; [1]): 95.5%
remaining activity at 0.3 µM (CDK3/cyclin E2; [2]): 95.1%
remaining activity at 0.3 µM (IKKa/CHUK; [1]): 99.5%
remaining activity at 0.3 µM (IKKa/CHUK; [2]): 94.3%
remaining activity at 0.3 µM (FLT1/VEGFR1; [1]): 96.8%
remaining activity at 0.3 µM (FLT1/VEGFR1; [2]): 96.2%
remaining activity at 0.3 µM (FYN; [1]): 108%
remaining activity at 0.3 µM (FYN; [2]): 105%
remaining activity at 0.3 µM (PLK1; [1]): 88.7%
remaining activity at 0.3 µM (PLK1; [2]): 87.8%
remaining activity at 0.3 µM (PKCb1; [1]): 90.9%
remaining activity at 0.3 µM (PKCb1; [2]): 90.2%
remaining activity at 0.3 µM (LRRK2; [1]): 8.89%
remaining activity at 0.3 µM (LRRK2; [2]): 8.22%
Structure (SMILES): COc1cc(N2CCN(C)CC2)c(C)cc1Nc1ncc(Br)c(Nc2cccnc2N(C)C)n1 [TP-5801]
